Measurements: US20160115540A1, “PRODRUGS AND DRUGS” (Biogen MA Inc., priority 2013, published 2016)
Entries after “also recorded” stand apart in the source; their conditions may differ. Where a name gives a salt, the structure may show the parent alone.

Legend:
NK cells = test: Flow cytometry of NK cell surface markers (MFI) in naïve mice; assay type: in vivo, C57Bl/6 mice; conditions: 12 hr after 100 mpk PO
From the text: Protein expression is quantified by mean fluorescent intensity (MFI).
12-hours post-dose, mice were sacrificed and blood, spleen, and inguinal lymph node were collected for analysis by flow cytometry.
Transcriptional differences in NK cell markers were confirmed at the protein level by flow cytometry. […] Protein expression was quantified by mean fluorescent intensity (MFI). […] 12-hours post-dose, mice were sacrificed and blood, spleen, and inguinal lymph node (iLN) were collected for analysis by flow cytometry.

cortex = test: Transcriptional profiling on Affymetrix GeneChips, single dose, naïve mice: cortex; assay type: in vivo, C57BL/6 mice; conditions: for Number of differentially expressed genes identified: Cortex: Naïve, Single Dose
Procedure: Treated mice were sacrificed at 2, 7, or 12 hours. Tissues (liver, spleen, kidney, jejunum, cortex, hippocampus, striatum and whole blood) were collected and analyzed by transcriptional profiling on mouse Affymetrix GeneChips.
Tissues (liver, spleen, kidney, jejunum, cortex, hippocampus, striatum and whole blood) were collected and analyzed by transcriptional profiling on mouse Affymetrix GeneChips.
Animals were exposed to CO2 and whole blood collected via cardiac puncture. Two 100 μl aliquots of whole blood were collected in 1.5 mL microcentrifuge tubes and snap frozen in liquid nitrogen. Peripheral (liver, spleen, kidney and jejunum) and CNS brain (cerebellum, hippocampus, striatum and cortex) tissues were harvested and snap frozen in liquid nitrogen, with special care taken to collect tissues of similar size and from the same location. All samples were stored at −80° C. until RNA extraction was conducted.
For RNA preparation, frozen tissues were placed in 2 mL RNAse-free 96-well blocks with 1.5 mL QIAzol Lysis Reagent (QIAgen) and a 3.2 mm stainless steel bead (BioSpec Products, Bartlesville, Okla.). Tissues were disrupted for four cycles of 45 seconds in a Mini-Beadbeater (Biospec Products). RNA was extracted in chloroform and the aqueous phase was mixed with an equal volume of 70% ethanol. Extracted RNA was applied to RNeasy 96 plates and purified by the spin method according to the manufacturer's protocol (RNeasy 96 Universal Tissue Protocol, QIAgen, Hilden Germany).
Automated sample amplifications and biotin labelings were carried out using the NuGEN Ovation RNA Amplification system V2 (Cat #3100), Ovation WB reagent (Cat #1300) and Encore Biotin module (Cat #4200) (NuGEN Technologies, Inc, San Carlos, Calif.) according to manufacturer's recommendations using an Arrayplex automated liquid handler (Beckman Coulter, Indianapolis, Ind.). Two micrograms of biotin labeled sscDNA probe were hybridized to Affymetrix GeneChip Affymetrix HT_MG-430_PM plate arrays with modified conditions as described in Allaire et al. Washing and staining of the hybridized arrays were completed as described in the GeneChip Expression analysis technical manual for HT plate arrays using the Genechip® Array Station (Affymetrix, Santa Clara, Calif.) with modifications as described in Allaire et al. The processed GeneChip® plate arrays were scanned using GeneTitan scanner (Affymetrix, Santa Clara, Calif.).
Affymetrix scans were subject to quality control (QC) measures. These tests included a visual inspection of the distribution of raw signal intensities and an assessment of RNA degradation, relative log expression (RLE), and normalized unsealed standard error (NUSE). All sample scans that passed these QC metrics were included in the analysis.
All CEL files were subjected to GC-content-based Robust Multi-array Average (GCRMA) normalization (version 2.20.0) (Irizarry R A, et al. Nucleic Acids Res 2003; 31:e15; Li C, et al. Genome Biol 2001; 2:[…]0032). Expression levels were log (base 2) transformed.
All calculations and analyses were carried out using R (version 2.11.1) and Bioconductor computational tools (Gentleman R. Springer Science+Business Media 2005).

[1] = 100 mpk, vs Vehicle, 2 h after last dosing
[2] = 100 mpk, vs Vehicle, 7 h after last dosing
[3] = 100 mpk, vs Vehicle, 12 h after last dosing
[4] = cortex, 2 hr after single 100 mg/kg oral dose
[5] = cortex, 7 hr after single 100 mg/kg oral dose

COC(=O)/C=C/C(=O)OC [DMF, dimethyl fumarate]
Klrb1b (NK1.1) protein expression change, MFI difference compared to MMF 12 hr or vehicle control (NK cells; NK cells): differentially expressed; also recorded: Significant
Klrc1 (Nkg2a) protein expression change, MFI difference compared to MMF 12 hr or vehicle control (NK cells; NK cells): differentially expressed; also recorded: Significant
Klrd1 (CD94) protein expression change, MFI difference compared to MMF 12 hr or vehicle control (NK cells; NK cells): differentially expressed
Klrk1 (NKG2d) protein expression change, MFI difference compared to MMF 12 hr or vehicle control (NK cells; NK cells): differentially expressed; also recorded: Significant
Ncr1 (NKp46) protein expression change, MFI difference compared to MMF 12 hr or vehicle control (NK cells; NK cells): Not significant
Effects on NK cells in the spleen (NK cells; naïve mice): exerts effects on NK cells in the spleen
Number of genes, DMF Only / MMF Only (cortex; Cortex): 2
Fgfbp1 (1419086_PM_at) differential expression (cortex; Cortex, 7 hr): 1.54
Nqo1 (1423627_PM_at) differential expression (cortex; Cortex, 7 hr): 1.50
Number of differentially expressed genes identified: Cortex (cortex; 100 mpk DMF-vs-100 mpk MMF, 2 h after last dosing): 0
Number of differentially expressed genes identified: Cortex (cortex; 100 mpk DMF-vs-100 mpk MMF, 7 h after last dosing): 0
Number of differentially expressed genes identified: Cortex (cortex; 100 mpk DMF-vs-100 mpk MMF, 12 h after last dosing): 0
Number of differentially expressed genes identified: Cortex (cortex; [1]): 2
Number of differentially expressed genes identified: Cortex (cortex; [2]): 2
Number of differentially expressed genes identified: Cortex (cortex; [3]): 0
differentially expressed genes (cortex; cortex, 100DMF-vs-100MMF, 2 h): None
differentially expressed genes (cortex; cortex, 100DMF-vs-100MMF, 7 h): None
differentially expressed genes (cortex; cortex, 100DMF-vs-100MMF, 12 h): None
FC AI314604 (1442075_PM_at) (cortex; cortex, 100DMF-vs-Veh, 2 h): 1.57
FC Ciapin1 (1448140_PM_at) (cortex; cortex, 100DMF-vs-Veh, 2 h): 1.55
FC Fgfbp1 1419086_PM_at (cortex; cortex, 100DMF-vs-Veh, 7 h): 1.54
FC Nqo1 (1423627_PM_at) (cortex; cortex, 100DMF-vs-Veh, 7 h): 1.50
differentially expressed genes (cortex; cortex, 100DMF-vs-Veh, 12 h): None

COC(=O)/C=C/C(=O)O [MMF, monomethyl fumarate]
Number of genes, DMF Only / MMF Only (cortex; Cortex): 14
Arnt2 (1420670_PM_at) differential expression (cortex; Cortex, 2 hr): −1.66
Atrn (1421166_PM_at) differential expression (cortex; Cortex, 2 hr): −1.62
Chka (1442277_PM_at) differential expression (cortex; Cortex, 2 hr): −1.53
Ednrb (1423594_PM_a_at) differential expression (cortex; Cortex, 2 hr): −1.53
Extl3 (1421339_PM_at) differential expression (cortex; Cortex, 2 hr): −1.57
Mkln1 (1416734_PM_at) differential expression (cortex; Cortex, 2 hr): −1.85
Plekhm3 (1438108_PM_at) differential expression (cortex; Cortex, 2 hr): −1.50
Ptk2 (1430827_PM_a_at) differential expression (cortex; Cortex, 2 hr): −1.53
Ptprg (1456070_PM_at) differential expression (cortex; Cortex, 2 hr): −1.83
Speer4b (1429992_PM_at) differential expression (cortex; Cortex, 2 hr): −1.60
Tanc2 (1443123_PM_at) differential expression (cortex; Cortex, 2 hr): −1.72
Top2b (1448458_PM_at) differential expression (cortex; Cortex, 2 hr): −1.51
Trak2 (1429607_PM_at) differential expression (cortex; Cortex, 2 hr): −1.57
Aox1 (1419435_PM_at) differential expression (cortex; Cortex, 7 hr): 1.65
Fgfbp1 (1419086_PM_at) differential expression (cortex; Cortex, 7 hr): 1.62
Aox1 (1419435_PM_at) differential expression (cortex; Cortex, 12 hr): 1.54
Number of differentially expressed genes identified: Cortex (cortex; [1]): 9
Number of differentially expressed genes identified: Cortex (cortex; [2]): 2
Number of differentially expressed genes identified: Cortex (cortex; [3]): 1
FC Arnt2 (1420670_PM_at) (cortex; cortex, 100MMF-vs-Veh, 2 h): −1.66
FC Atrn (1421166_PM_at) (cortex; cortex, 100MMF-vs-Veh, 2 h): −1.62
FC Ednrb (1423594_PM_a_at) (cortex; cortex, 100MMF-vs-Veh, 2 h): −1.53
FC Mkln1 (1416734_PM_at) (cortex; cortex, 100MMF-vs-Veh, 2 h): −1.85
FC Plekhm3 (1438108_PM_at) (cortex; cortex, 100MMF-vs-Veh, 2 h): −1.50
FC Ptk2 (1430827_PM_a_at) (cortex; cortex, 100MMF-vs-Veh, 2 h): −1.53
FC Tanc2 (1443123_PM_at) (cortex; cortex, 100MMF-vs-Veh, 2 h): −1.72
FC Top2b (1448458_PM_at) (cortex; cortex, 100MMF-vs-Veh, 2 h): −1.51
FC Trak2 (1429607_PM_at) (cortex; cortex, 100MMF-vs-Veh, 2 h): −1.57
FC Aox1 (1419435_PM_at) (cortex; cortex, 100MMF-vs-Veh, 7 h): 1.65
FC Fgfbp1 1419086_PM_at (cortex; cortex, 100MMF-vs-Veh, 7 h): 1.62
FC Aox1 (1419435_PM_at) (cortex; cortex, 100MMF-vs-Veh, 12 h): 1.54
Arnt2 mRNA fold change vs vehicle (cortex; [4]): −1.66
Atrn mRNA fold change vs vehicle (cortex; [4]): −1.62
Chka mRNA fold change vs vehicle (cortex; [4]): −1.53
Ednrb mRNA fold change vs vehicle (cortex; [4]): −1.53
Extl3 mRNA fold change vs vehicle (cortex; [4]): −1.57
Mkln1 mRNA fold change vs vehicle (cortex; [4]): −1.85
Plekhm3 mRNA fold change vs vehicle (cortex; [4]): −1.50
Ptk2 mRNA fold change vs vehicle (cortex; [4]): −1.53
Ptprg mRNA fold change vs vehicle (cortex; [4]): −1.83
Speer4b mRNA fold change vs vehicle (cortex; [4]): −1.60
Tanc2 mRNA fold change vs vehicle (cortex; [4]): −1.72
Top2b mRNA fold change vs vehicle (cortex; [4]): −1.51
Trak2 mRNA fold change vs vehicle (cortex; [4]): −1.57
Aox1 mRNA fold change vs vehicle (cortex; [5]): 1.65
Fgfbp1 mRNA fold change vs vehicle (cortex; [5]): 1.62
Aox1 mRNA fold change vs vehicle (cortex; cortex, 12 hr after single 100 mg/kg oral dose): 1.54
